Measured values from US20250314644A1, “METHODS COMPRISING DETECTION OF ADP-HEPTOSE” (CHILDREN'S HOSPITAL MEDICAL CENTER, priority 2023, published 2025).

Assays:
Dnmt3a^KO cells = assay: RNA-sequencing of HSPCs treated in vitro with ADP-heptose or H2O for 90 minutes; assay type: cell-based, mouse
healthy BM cells = assay: Xenograft of healthy cells in NSG mice treated with ADP-heptose; assay type: in vivo, human; settings: immunocompromised mice
Procedure: NOD.Cg-Prkdc^scidIl2rg^tm1Wj1/SzJ (NSG)^75 were bred and maintained by the CCHMC Comprehensive Mouse Core. For patient derived xenografts, NSG mice (sub-lethally conditioned with 2 Gy of whole-body irradiation) were injected tail vein with healthy CD34+ cells (1×10^6 cells per mouse) and MDS patient cells (5×10^6 cells per mouse) in 200 μl of sterile PBS. Mice were then given sterile water or ADP-heptose (0.5 mg/kg) dissolved in sterile water at the indicated times. Mice were monitored for human engraftment in BM aspirates Briefly, 1×10^6 BM cells from each sample were incubated with huCD45 (Cat no. 555485, BDPharmingen) and huCD33 (Cat no. 555450, BDPharmingen) antibodies diluted 1:100 in a solution of PBS, 0.2% FBS for 30 minutes on ice. Cells were washed once with PBS, resuspended in PBS with 0.2% FBS, and immediately analyzed by flow cytometry.

Structure (SMILES): Nc1ncnc2c1ncn2[C@@H]1O[C@H](COP(=O)(O)OP(=O)(O)O[C@@H]2O[C@H]([C@H](O)CO)[C@@H](O)[C@H](O)[C@@H]2O)[C@@H](O)[C@H]1O [ADP-heptose, ADP-D-glycero-β-D-manno-heptose]
- gene expression changes (global transcriptomic analysis) (Dnmt3a^KO cells; Dnmt3a^−/− compared to WT LSKs): significant gene expression changes
- logFC (Dnmt3a^KO cells; gene 2610037D02Rik, Dnmt3a^KO cells): −0.596
- logFC (Dnmt3a^KO cells; gene 5031425F14Rik, Dnmt3a^KO cells): 0.6597
- logFC (Dnmt3a^KO cells; gene 6330549D23Rik, Dnmt3a^KO cells): 0.6997
- logFC (Dnmt3a^KO cells; gene A130077B15Rik, Dnmt3a^KO cells): −0.592
- logFC (Dnmt3a^KO cells; gene AF251705, Dnmt3a^KO cells): 0.6212
- logFC (Dnmt3a^KO cells; gene Adm, Dnmt3a^KO cells): 1.598
- logFC (Dnmt3a^KO cells; gene Afp, Dnmt3a^KO cells): 0.7049
- logFC (Dnmt3a^KO cells; gene Ahrr, Dnmt3a^KO cells): 1.585
- logFC (Dnmt3a^KO cells; gene Angptl2, Dnmt3a^KO cells): 0.6418
- logFC (Dnmt3a^KO cells; gene Avil, Dnmt3a^KO cells): 1.557
- logFC (Dnmt3a^KO cells; gene Baiap2, Dnmt3a^KO cells): 0.7135
- logFC (Dnmt3a^KO cells; gene Baiap2l1, Dnmt3a^KO cells): 0.6616
- logFC (Dnmt3a^KO cells; gene C1qb, Dnmt3a^KO cells): 0.6904
- logFC (Dnmt3a^KO cells; gene C1qc, Dnmt3a^KO cells): 0.6327
- logFC (Dnmt3a^KO cells; gene Carns1, Dnmt3a^KO cells): 0.6216
- logFC (Dnmt3a^KO cells; gene Ccl2, Dnmt3a^KO cells): 0.6432
- logFC (Dnmt3a^KO cells; gene Ccl24, Dnmt3a^KO cells): 1.576
- logFC (Dnmt3a^KO cells; gene Cd28, Dnmt3a^KO cells): 0.6845
- logFC (Dnmt3a^KO cells; gene Cd40, Dnmt3a^KO cells): 0.6974
- logFC (Dnmt3a^KO cells; gene Cd74, Dnmt3a^KO cells): 0.6203
- logFC (Dnmt3a^KO cells; gene Ces1d, Dnmt3a^KO cells): 0.5862
- logFC (Dnmt3a^KO cells; gene Chst10, Dnmt3a^KO cells): 0.609
- logFC (Dnmt3a^KO cells; gene Ciita, Dnmt3a^KO cells): 0.6462
- logFC (Dnmt3a^KO cells; gene Clec10a, Dnmt3a^KO cells): 0.615
- logFC (Dnmt3a^KO cells; gene Col1a1, Dnmt3a^KO cells): 0.5944
- logFC (Dnmt3a^KO cells; gene Col15a1, Dnmt3a^KO cells): 0.6093
- logFC (Dnmt3a^KO cells; gene Cxcl3, Dnmt3a^KO cells): 0.6695
- logFC (Dnmt3a^KO cells; gene Cxcr2, Dnmt3a^KO cells): −0.587
- logFC (Dnmt3a^KO cells; gene Dcstamp, Dnmt3a^KO cells): 0.7137
- logFC (Dnmt3a^KO cells; gene Dnah6, Dnmt3a^KO cells): 0.6061
- logFC (Dnmt3a^KO cells; gene Dqx1, Dnmt3a^KO cells): 0.6377
- logFC (Dnmt3a^KO cells; gene Emp1, Dnmt3a^KO cells): 0.6342
- logFC (Dnmt3a^KO cells; gene Etohi1, Dnmt3a^KO cells): −0.586
- logFC (Dnmt3a^KO cells; gene Fam167a, Dnmt3a^KO cells): 0.6175
- logFC (Dnmt3a^KO cells; gene Fblim1, Dnmt3a^KO cells): 0.5971
- logFC (Dnmt3a^KO cells; gene Flrt2, Dnmt3a^KO cells): 0.7192
- logFC (Dnmt3a^KO cells; gene Gm8369, Dnmt3a^KO cells): −0.599
- logFC (Dnmt3a^KO cells; gene Gm17455, Dnmt3a^KO cells): 0.7125
- logFC (Dnmt3a^KO cells; gene Grap, Dnmt3a^KO cells): 0.6793
- logFC (Dnmt3a^KO cells; gene Grm1, Dnmt3a^KO cells): 1.762
- logFC (Dnmt3a^KO cells; gene Gzmb, Dnmt3a^KO cells): 0.674
- logFC (Dnmt3a^KO cells; gene Gzmc, Dnmt3a^KO cells): 1.782
- logFC (Dnmt3a^KO cells; gene H2-DMb2, Dnmt3a^KO cells): 0.6529
- logFC (Dnmt3a^KO cells; gene H2-Eb1, Dnmt3a^KO cells): 0.5954
- logFC (Dnmt3a^KO cells; gene H2-Eb2, Dnmt3a^KO cells): 0.6221
- logFC (Dnmt3a^KO cells; gene H2-K2, Dnmt3a^KO cells): 0.6688
- logFC (Dnmt3a^KO cells; gene Hic1, Dnmt3a^KO cells): 1.783
- logFC (Dnmt3a^KO cells; gene Hist1h2ag, Dnmt3a^KO cells): 0.6273
- logFC (Dnmt3a^KO cells; gene Hist1h2bc, Dnmt3a^KO cells): 0.6716
- logFC (Dnmt3a^KO cells; gene Hist1h2be, Dnmt3a^KO cells): 0.6244
- logFC (Dnmt3a^KO cells; gene Hist1h2bf, Dnmt3a^KO cells): 0.6891
- logFC (Dnmt3a^KO cells; gene Hist1h2bj, Dnmt3a^KO cells): 0.665
- logFC (Dnmt3a^KO cells; gene Hist1h4d, Dnmt3a^KO cells): 0.592
- logFC (Dnmt3a^KO cells; gene Hyal1, Dnmt3a^KO cells): 0.599
- logFC (Dnmt3a^KO cells; gene Igf2bp2, Dnmt3a^KO cells): 0.6643
- logFC (Dnmt3a^KO cells; gene Il12rb1, Dnmt3a^KO cells): 0.6261
- logFC (Dnmt3a^KO cells; gene Iqcg, Dnmt3a^KO cells): 0.6826
- logFC (Dnmt3a^KO cells; gene Itgb7, Dnmt3a^KO cells): 0.6248
- logFC (Dnmt3a^KO cells; gene Lars2, Dnmt3a^KO cells): 0.6326
- logFC (Dnmt3a^KO cells; gene Lif, Dnmt3a^KO cells): 0.6432
- logFC (Dnmt3a^KO cells; gene Loxl3, Dnmt3a^KO cells): 0.5934
- logFC (Dnmt3a^KO cells; gene Lrrc51, Dnmt3a^KO cells): 0.669
- logFC (Dnmt3a^KO cells; gene Map3k15, Dnmt3a^KO cells): 0.7124
- logFC (Dnmt3a^KO cells; gene Matk, Dnmt3a^KO cells): 0.5934
- logFC (Dnmt3a^KO cells; gene Mir6236, Dnmt3a^KO cells): 0.6256
- logFC (Dnmt3a^KO cells; gene Mmp12, Dnmt3a^KO cells): 0.7097
- logFC (Dnmt3a^KO cells; gene Mrc1, Dnmt3a^KO cells): 0.7023
- logFC (Dnmt3a^KO cells; gene N4bp3, Dnmt3a^KO cells): 0.6853
- logFC (Dnmt3a^KO cells; gene Nqo1, Dnmt3a^KO cells): 0.7094
- logFC (Dnmt3a^KO cells; gene Orm1, Dnmt3a^KO cells): −0.598
- logFC (Dnmt3a^KO cells; gene P2rx3, Dnmt3a^KO cells): 0.7048
- logFC (Dnmt3a^KO cells; gene Pcbp3, Dnmt3a^KO cells): 0.6997
- logFC (Dnmt3a^KO cells; gene Pf4, Dnmt3a^KO cells): 0.7165
- logFC (Dnmt3a^KO cells; gene Phf1, Dnmt3a^KO cells): 0.595
- logFC (Dnmt3a^KO cells; gene Plekhn1, Dnmt3a^KO cells): 0.6207
- logFC (Dnmt3a^KO cells; gene Ppp1r3d, Dnmt3a^KO cells): −0.595
- logFC (Dnmt3a^KO cells; gene Procr, Dnmt3a^KO cells): −0.595
- logFC (Dnmt3a^KO cells; gene Ptgs1, Dnmt3a^KO cells): 0.6215
- logFC (Dnmt3a^KO cells; gene Ptprn, Dnmt3a^KO cells): 0.5867
- logFC (Dnmt3a^KO cells; gene Pvrl1, Dnmt3a^KO cells): 0.663
- logFC (Dnmt3a^KO cells; gene Rap1gap, Dnmt3a^KO cells): 0.6406
- logFC (Dnmt3a^KO cells; gene Retnlg, Dnmt3a^KO cells): 0.6829
- logFC (Dnmt3a^KO cells; gene Rn45s, Dnmt3a^KO cells): 0.6912
- logFC (Dnmt3a^KO cells; gene Rptoros, Dnmt3a^KO cells): 0.6692
- logFC (Dnmt3a^KO cells; gene Scn3a, Dnmt3a^KO cells): 1.51
- logFC (Dnmt3a^KO cells; gene Serpinb2, Dnmt3a^KO cells): 0.6945
- logFC (Dnmt3a^KO cells; gene Slc36a2, Dnmt3a^KO cells): 0.7191
- logFC (Dnmt3a^KO cells; gene Spag1, Dnmt3a^KO cells): −0.587
- logFC (Dnmt3a^KO cells; gene Spry1, Dnmt3a^KO cells): −0.595
- logFC (Dnmt3a^KO cells; gene Srp54b, Dnmt3a^KO cells): 1.636
- logFC (Dnmt3a^KO cells; gene Stfa2l1, Dnmt3a^KO cells): −0.599
- logFC (Dnmt3a^KO cells; gene Tdrkh, Dnmt3a^KO cells): 0.5973
- logFC (Dnmt3a^KO cells; gene Tesc, Dnmt3a^KO cells): 0.607
- logFC (Dnmt3a^KO cells; gene Tjp3, Dnmt3a^KO cells): 0.5969
- logFC (Dnmt3a^KO cells; gene Tlr5, Dnmt3a^KO cells): 0.5879
- logFC (Dnmt3a^KO cells; gene Tpmt, Dnmt3a^KO cells): −0.598
- logFC (Dnmt3a^KO cells; gene Trem2, Dnmt3a^KO cells): 0.6257
- logFC (Dnmt3a^KO cells; gene Trib3, Dnmt3a^KO cells): 0.677
- logFC (Dnmt3a^KO cells; gene Zfp184, Dnmt3a^KO cells): −0.594
- logFC (Dnmt3a^KO cells; gene Zfp784, Dnmt3a^KO cells): 0.6147
- engraftment of healthy BM cells (healthy BM cells): no effect
